What all share (test): NCI tumour cell line growth inhibition, 48 h
Assay [1] deals with A549 NSCLC.
Assay [2] relates to HL-60(TB) leukemia.
Assay [3] relates to IGROV1 ovarian.
Assay [4] concerns KM12 colon.
Assay [5] deals with M14 melanoma.
In assay [6] the test system is MDA-MB-435.
The test system of assay [7] is NCI-H460 lung.
Assay [8] has as its system SK-MEL-28 melanoma.
Assay [9] concerns SW-620 colon.
The subject of assay [10] is UACC-62 melanoma.

Experimental findings from PubChem BioAssay (NCI) are described below.

Where “and” joins values, the source holds several entries; their conditions need not be identical. Identical values can stand only once.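 Where inhibition never reached the appropriate level, the endpoint shown equals the highest concentration tested. Otherwise, values were interpolated linearly from a five-concentration, 48-hour dose response in 96-well plates. GI50 marks 50% less growth. TGI marks complete inhibition of growth.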

As to `CS(=O)(=O)Nc1cc(-c2ccc3ncnc(Nc4cccc(Cl)c4)c3c2)cnc1Cl`, the GI50 in assay [1] is 1.11 µM; in assay [2], 0.174 µM; in [3] it was 0.0784 µM; in assay [4], 1.03 µM; in [5], 0.542 µM; in [6] it was 0.418 µM. For the same compound, the GI50 in [7] was 0.642 µM; in assay [8], 0.3 µM; in [9], 0.48 µM; in [10] it was 0.202 µM. Moreover, the TGI was 4.17 µM in [1]; 17.7 µM in [2]; 0.476 µM in [3]; 5.11 µM in assay [4]; 10.6 µM in [5]; 2.67 µM in [6]. Further, the TGI in [7] was found to be 11.1 µM; in [8], 4.75 µM; in assay [9], 4.87 µM; in [10], 1.26 µM.

With `CC(C)OP(=O)(O)c1ncc(-c2ccc(C(F)(F)F)cc2)c(NC2CCCCCC2)n1`, the GI50 is over 100 µM in assay [1]; 38.2 µM in assay [2]; over 100 µM in assay [3]; 68.8 µM in assay [4]; over 100 µM in assay [5]; over 100 µM in assay [6]. Further, the GI50 was over 100 µM in [7], over 100 µM in assay [8], over 100 µM in assay [9] and 49.7 µM in [10]. Further, the TGI in [1], in assay [2], in [3], in assay [4], in assay [5] and in assay [6] was over 100 µM throughout. Besides, the TGI in assay [7], in [8], in [9] and in assay [10] was over 100 µM each time.

Turning to `NCCCN=c1ccc2c3c1c(O)c1c(O)ccc(=O)c1c3[nH]n2CCNCCO`, the GI50 in assay [1] was 0.571 µM and 0.304 µM; in assay [2], 0.665 µM and 0.556 µM; in [4], 1.88 µM; in assay [5], 3.67 µM; in assay [7] it was 0.117 µM and 0.12 µM; in [8], 5.48 µM and 6.41 µM. Also, the GI50 in assay [10] is 0.792 µM. For the same compound, the TGI was 12.3 µM and 21.8 µM in [1]; 1.7 µM and 9.33 µM in [2]; 15.4 µM and 129 µM in assay [3]; 11.6 µM and 39 µM in assay [4]; 14.2 µM and 28 µM in assay [5]; 15.4 µM in [6]. The TGI in assay [7] was 3.66 µM and 15.7 µM; in assay [9], 9.98 µM and 40.5 µM; in [10] it was 5.66 µM and 6.48 µM.

Regarding `C[As](C)SC1OCC(O)C(O)C1O` (centres undefined), the GI50 was 1.63 µM in assay [1]; 0.0278 µM in [2]; 0.805 µM in assay [3]; 0.387 µM in assay [4]; 0.128 µM in assay [5]; 0.13 µM in [6]. The GI50 is 1.1 µM in assay [7], 0.387 µM in assay [8], 0.217 µM in [9] and 0.195 µM in [10]. The TGI in assay [1] was over 33.7 µM; in assay [2], 0.189 µM; in assay [3] it was 6.71 µM; in assay [4], 3.83 µM; in [5] it was 0.925 µM; in assay [6], 1.32 µM. Further, the TGI in assay [7] was found to be 7.52 µM; in [8], 3.33 µM; in assay [9], 1.59 µM; in [10] it was 0.556 µM.

Regarding `CCOC(=O)[C@@H]1CSC(CC)=C(C(=O)O)N1`, the GI50 in assay [1], in assay [2], in [3], in [4], in assay [5] and in [6] was over 100 µM throughout. In addition, the GI50 in assay [7], in assay [8], in assay [9] and in assay [10] was over 100 µM throughout. Also, the TGI in assay [1], in [2], in assay [3], in assay [4], in [5] and in assay [6] was over 100 µM each time. Moreover, the TGI in assay [7], in assay [8], in [9] and in assay [10] was over 100 µM each time.

For `CCn1c(-c2nonc2N)nc2cnc(Oc3cccc(NC(=O)c4ccc(N(C)C)cc4)c3)cc21`, the GI50 was 2.12 µM in assay [1]; over 25 µM in assay [2]; 22 µM in assay [3]; over 25 µM in [4]; over 25 µM in assay [5]; over 25 µM in [6]. The GI50 in assay [7], in assay [8], in assay [9] and in [10] was over 25 µM each time. The TGI in assay [1], in [2], in assay [3], in assay [4], in [5] and in assay [6] was over 25 µM in each case. Besides, the TGI in [7], in [8], in assay [9] and in assay [10] was over 25 µM each time.

Turning to `COc1ccc2c(c1OC)O/C(=C\c1ncc([N+](=O)[O-])n1C)C2=O`, the GI50 is 2.59 µM in assay [1]; 0.834 µM in assay [2]; 1.36 µM in assay [3]; 2.79 µM in [4]; 0.591 µM in assay [5]; 0.277 µM in assay [6]. Also, the GI50 was 0.925 µM in assay [7], 0.623 µM in assay [8], 0.385 µM in [9] and 1.49 µM in assay [10]. Besides, the TGI in [1] is 12.1 µM; in assay [3], 9.46 µM; in assay [4] it was 10.3 µM; in [5] it was 2.52 µM; in assay [6], 1.11 µM; in assay [7], 4.83 µM. The TGI came out at 3.43 µM in [8] and 3.36 µM in [10].
